Test in one series: not given
The note with it: data of another company, different apparatus and conditions; cited from earlier work.
Turning to `CC(=O)Nc1ccc(O)cc1` [Lot F, acetaminophen], the D10 is given as 220 μm and the D90 is 663 μm.
Regarding `CC(=O)Nc1ccc(O)cc1` [Lot E, acetaminophen], the D10 was 93 μm and the D90 is on record as 559 μm.
`CC(=O)Nc1ccc(O)cc1` [Lot R, acetaminophen]: the D10 is on record as 9.7 μm and the D90 is recorded as 192 μm.
Consider `CC(=O)Nc1ccc(O)cc1` [Lot Q, acetaminophen], for which the D10 is recorded as 5.8 μm and the D90 is 104 μm.

The nature of the next series: Particle size distribution by laser-diffraction method (Mastersizer 2000, dry mode). In kind it is physicochemical. To be noted: dispersion air pressure 2 Bar, volume conversion. The source says:
The acetaminophen to be used in the manufacturing method of the present invention (also referred to as “the present acetaminophen”) has a particle size distribution such that d10 is generally 5 to 300 μm, preferably 10 to 200 μm, more preferably 15 to 100 μm, and d90 is generally 200 to 900 μm, preferably 250 to 800 μm, more preferably 300 to 700 μm. Although there are some differences in the particle size distribution among lots, the unpulverized acetaminophen generally has the above-specified particle size distribution. In contrast, although there are some differences in the particle size distribution of a pulverized product of acetaminophen among the manufacturers of the drug substance and production lots, the particle size distribution of a pulverized product of acetaminophen is generally such that the d10 is 3 to 10 μm and d90 is 100 to 250 μm, and therefore the particle diameters of the pulverized product of acetaminophen are smaller compared with those of the present acetaminophen. In the present invention, the particle size distribution is determined by a volume distribution evaluation employing a laser-diffraction scattering method (Mastersizer 2000: Malvern), and the terms “d10”, “d50”, and “d90” refer to particle diameters at a volume cumulative 10% point, a volume cumulative 50% point, and a volume cumulative 90% point, respectively, as observed from the smaller diameter side in the particle size distribution.
Each of unpulverized products of acetaminophen (lots A to D) and a pulverized product of acetaminophen (lot P) was subjected to a particle size distribution measurement using a particle measurement method (a dry mode measurement) by a laser-diffraction method. As a machine, a dry automated dispersion unit microtray (Mastersizer 2000, Malvern) was used, the dispersion compression air pressure was 2 Bar, and the analysis of particle size distribution was performed by a volume conversion method. The results of lots E, F, Q, and R are data which were obtained by another company using a different measurement apparatus under different measurement conditions from those employed in the test of the present invention. As shown in the results of Table 1, difference may sometimes occur depending on the measurement conditions and measurement apparatuses used in the measurement of particle size distribution.
`CC(=O)Nc1ccc(O)cc1` [Lot B, acetaminophen] returned a D10 of 30 μm and a D90 of 551 μm.
In turn, `CC(=O)Nc1ccc(O)cc1` [Lot D, acetaminophen] had a D10 of 20 μm and a D90 of 464 μm.
`CC(=O)Nc1ccc(O)cc1` [Lot A, acetaminophen] gave a D10 of 20 μm and a D90 of 320 μm.
The compound `CC(=O)Nc1ccc(O)cc1` [Lot C, acetaminophen] showed a D10 of 26 μm and a D90 of 419 μm.
The corresponding values for `CC(=O)Nc1ccc(O)cc1` [Lot P, acetaminophen] are 3.7 μm and 166 μm.

(Values after US11433031B2, “Method for manufacturing acetaminophen preparation” (NIPPON ZOKI PHARMACEUTICAL CO., LTD., priority 2016, dated 2022).)
